Paper PMC6407579, “New flavonoid – N,N-dibenzyl(N-methyl)amine hybrids: Multi-target-directed agents for Alzheimer´s disease endowed with neurogenic properties” (Journal of Enzyme Inhibition and Medicinal Chemistry, 2019)
Where “and” joins values, the source holds several entries; their conditions need not be identical. Equal values may be shown once.

Legend:
[1] = test system: Aβ levels in cerebrospinal fluid; design: method as in PMID 29719179; details: cited from earlier work
recombinant hMAO-B = target: T1, recombinant hMAO-B (Homo sapiens, UniProt P27338); assay: biochemical; format: biochemical; details: mean ± SEM (n = 3); 100 µM highest concentration tested
T1 sequence (P27338 1-520): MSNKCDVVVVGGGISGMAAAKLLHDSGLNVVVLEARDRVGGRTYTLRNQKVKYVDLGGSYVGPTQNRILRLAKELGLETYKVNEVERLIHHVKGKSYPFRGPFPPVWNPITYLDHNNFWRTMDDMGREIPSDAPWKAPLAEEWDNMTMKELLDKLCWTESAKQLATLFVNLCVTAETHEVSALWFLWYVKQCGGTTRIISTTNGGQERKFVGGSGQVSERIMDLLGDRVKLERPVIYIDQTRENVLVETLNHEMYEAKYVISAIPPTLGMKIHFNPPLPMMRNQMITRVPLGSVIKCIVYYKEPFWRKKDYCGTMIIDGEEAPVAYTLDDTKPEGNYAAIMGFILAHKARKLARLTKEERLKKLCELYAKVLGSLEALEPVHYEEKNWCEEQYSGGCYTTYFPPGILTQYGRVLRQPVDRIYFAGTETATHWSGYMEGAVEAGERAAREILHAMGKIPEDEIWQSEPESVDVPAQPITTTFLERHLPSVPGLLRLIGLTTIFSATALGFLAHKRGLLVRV

[2] = target: T2, human recombinant AChE (hAChE) (Homo sapiens, UniProt P22303); assay: biochemical; details: mean ± SEM (n = 3); read-out: hAChE IC50
T2 construct: purchased Sigma Chemical Co
T2 sequence (P22303 32-614): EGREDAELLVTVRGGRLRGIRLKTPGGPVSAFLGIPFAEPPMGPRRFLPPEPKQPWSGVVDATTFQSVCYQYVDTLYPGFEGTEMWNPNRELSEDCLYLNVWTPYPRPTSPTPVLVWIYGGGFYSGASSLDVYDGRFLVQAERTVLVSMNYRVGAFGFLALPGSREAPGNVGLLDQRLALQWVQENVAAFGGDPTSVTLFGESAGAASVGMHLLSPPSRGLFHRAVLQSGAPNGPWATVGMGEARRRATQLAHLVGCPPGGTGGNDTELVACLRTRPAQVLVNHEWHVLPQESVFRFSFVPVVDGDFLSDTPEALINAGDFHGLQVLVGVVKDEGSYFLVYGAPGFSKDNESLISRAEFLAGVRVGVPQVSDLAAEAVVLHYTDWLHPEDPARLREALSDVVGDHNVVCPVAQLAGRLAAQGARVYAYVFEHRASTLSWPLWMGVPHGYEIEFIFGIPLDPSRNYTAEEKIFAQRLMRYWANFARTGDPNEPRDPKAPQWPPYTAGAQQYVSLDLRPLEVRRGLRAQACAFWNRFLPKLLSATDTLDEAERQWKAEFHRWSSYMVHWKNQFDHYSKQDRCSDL
Protocol: The Ellman method was followed, using human recombinant AChE and BuChE from human serum. The assay solution consisted of 0.1 M phosphate buffer pH 8.0, 400 μM 5,5´-dithiobis(2-nitrobenzoic acid) (DTNB, Ellman’s reagent), 0.05 U/mL hAChE (Sigma Chemical Co.) or 0.024 U/mL hBuChE (Sigma Chemical Co.), and 800 μM acetylthiocholine iodide, or 500 μM butyrylthiocholine as the substrate of the enzymatic reaction, respectively. The compounds tested were added to the assay solution and preincubated with the enzyme for 5 min at 30 °C. After that period, the substrate was added.

[3] = In vitro blood-brain barrier permeation assay (PAMPA-BBB); format: in vitro ADME; details: pig, pH 7.4, porcine brain lipid, PBS:ethanol (70:30), 25 °C, read-out: PAMPA-BBB permeability in the CNS (Pe)
Protocol: Prediction of the brain penetration was evaluated using a parallel artificial membrane permeation assay (PAMPA-BBB), in a similar manner as previously described[36]^,[46]^,[51–53]. Pipetting was performed with a semi-automatic pipettor (CyBi®-SELMA) and UV reading with a microplate spectrophotometer (Multiskan Spectrum, Thermo Electron Co.). Commercial drugs, phosphate buffered saline solution at pH 7.4 (PBS), and dodecane were purchased from Sigma, Aldrich, Acros, and Fluka. Millex filter units (PVDF membrane, diameter 25 mm, pore size 0.45 μm) were acquired from Millipore. The porcine brain lipid (PBL) was obtained from Avanti Polar Lipids. The donor microplate was a 96-well filter plate (PVDF membrane, pore size 0.45 μm) and the acceptor microplate was an indented 96-well plate, both from Millipore. The acceptor 96-well microplate was filled with 200 μL of PBS: ethanol (70:30) and the filter surface of the donor microplate was impregnated with 5 μL of porcine brain lipid (PBL) in dodecane (20 mg mL^−1). Compounds were dissolved in PBS: ethanol (70:30) at 100 μg mL^−1, filtered through a Millex filter, and then added to the donor wells (200 μL). The donor filter plate was carefully put on the acceptor plate to form a sandwich, which was left undisturbed for 120 min at 25 °C. After incubation, the donor plate is carefully removed and the concentration of compounds in the acceptor wells was determined by UV-Vis spectroscopy. Every sample is analysed at five wavelengths, in four wells and at least in three independent runs, and the results are given as the mean ± standard deviation. In each experiment, 11 quality control standards of known BBB permeability were included to validate and normalise the analysis set.
To check if new compounds could be able to reach their CNS-targets, we used the in vitro parallel artificial membrane permeability assay for the blood-brain barrier (PAMPA-BBB) described by Di et al.[87], and partially modified by us for testing molecules with limited water-solubility[36]^,[46]^,[51–53]. The passive CNS-permeation of new compounds 1–13 through a lipid extract of porcine brain was measured at room temperature. In each experiment, 11 commercial drugs of known brain permeability were also tested and their permeability values normalised to the reported PAMPA-BBB data. […].

σ1R = target: T3, σ1R (Cavia porcellus, UniProt Q60492); assay: Sigma-1 receptor binding, [3H]-(+)-pentazocine competition; design: species or system guinea pig
T3 construct: the thawed membrane preparation of guinea pig brain cortex; from tissue; host or cells: guinea pig brain cortex membranes
T3 sequence (Q60492 whole entry): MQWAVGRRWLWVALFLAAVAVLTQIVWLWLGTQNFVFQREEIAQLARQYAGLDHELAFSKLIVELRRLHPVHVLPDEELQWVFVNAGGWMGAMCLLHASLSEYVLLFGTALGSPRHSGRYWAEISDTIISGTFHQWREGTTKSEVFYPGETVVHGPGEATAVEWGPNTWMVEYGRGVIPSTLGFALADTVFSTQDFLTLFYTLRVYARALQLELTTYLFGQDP

[4] = Oxygen radical absorbance capacity assay (ORAC); details: trolox taken as 1.0
recombinant hMAO-A = target: T4, recombinant hMAO-A (Homo sapiens, UniProt P21397); assay: biochemical; format: biochemical
T4 sequence (P21397 1-527): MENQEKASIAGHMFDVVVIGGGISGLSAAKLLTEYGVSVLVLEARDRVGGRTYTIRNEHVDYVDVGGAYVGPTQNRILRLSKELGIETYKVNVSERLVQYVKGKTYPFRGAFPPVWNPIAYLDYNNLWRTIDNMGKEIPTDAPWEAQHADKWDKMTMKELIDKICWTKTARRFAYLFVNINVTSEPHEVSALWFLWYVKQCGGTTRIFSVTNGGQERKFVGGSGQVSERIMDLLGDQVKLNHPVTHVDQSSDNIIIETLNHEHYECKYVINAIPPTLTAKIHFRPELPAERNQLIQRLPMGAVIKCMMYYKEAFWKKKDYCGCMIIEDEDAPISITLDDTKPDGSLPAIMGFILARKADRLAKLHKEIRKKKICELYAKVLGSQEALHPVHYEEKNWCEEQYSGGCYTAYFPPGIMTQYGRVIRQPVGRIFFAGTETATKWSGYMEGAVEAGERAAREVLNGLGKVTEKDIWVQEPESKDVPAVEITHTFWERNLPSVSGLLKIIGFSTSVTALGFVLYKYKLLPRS

σ2R = target: T5, σ2R (Rattus norvegicus, UniProt Q5U3Y7); assay: Sigma-2 receptor binding, [3H]-DTG competition
T5 construct: 150 µg of rat liver homogenate were incubated; from tissue; host or cells: rat liver homogenate
T5 sequence (Q5U3Y7 1-176): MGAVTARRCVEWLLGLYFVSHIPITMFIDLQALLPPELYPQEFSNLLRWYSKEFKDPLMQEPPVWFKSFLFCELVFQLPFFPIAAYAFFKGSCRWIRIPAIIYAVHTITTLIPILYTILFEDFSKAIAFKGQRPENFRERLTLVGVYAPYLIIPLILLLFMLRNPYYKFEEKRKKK

SMILES | reduction of Aβ levels in cerebrospinal fluid [1] | IC50 (recombinant hMAO-B) | IC50 [2] | Papp at 120 min, 100 μg mL^−1 [3] | Ki (σ1R) | Selectivity vs. σ1R (Kiσ2R/Kiσ1R) (σ1R) | ORAC, trolox equivalents [4] | preference for hMAO-A compared to hMAO-B (recombinant hMAO-A) | IC50 (recombinant hMAO-A; mean ± SEM (n = 3), 100 µM highest concentration tested) | Ki (σ2R)
CN1C(=N)N[C@](C)(c2cc(NC(=O)c3ccc(F)cn3)ccc2F)CS1(=O)=O [verubecestat] | up to 81% | – | – | – | – | – | – | – | – | –
CN(Cc1ccccc1)Cc1ccc(NC(=O)c2cc(=O)c3c(O)cc(O)cc3o2)cc1 [Compound 4, N-(4-((Benzyl(methyl)amino)methyl)phenyl)-5,7-dihydroxy-4-oxo-4H-chromene-2-carboxamide] | – | > 100000 nM | 1900 ± 600 nM | 14.7 ± 1.2 ×10⁻⁶ cm/s | 510 ± 70 nM | > 5.9 | 1.2 mmol of trolox/mmol of tested compound and 1.2 ± 0.1 mmol of trolox/mmol of tested compound | at least 4.4 times | 22800 ± 1500 nM | > 3000 nM
